The data set can be described thus: Solubility of virginiamycin in several solvents (applicant's determination). Format: physicochemical. The method, then: The solubility of virginiamycin in several solvents were determined. Each of these solvents can be useful in solubilized organic liquid comprising antimicrobial material, an emulsion of the same in water, or in both. […] Such a solution is stable, pumpable, and useful not only for treatments of ethanol-producing facilities but for a number of other uses where virginiamycin is used.

The mark [1] stands for this setting: solvent: 50% NMP/50% Ethyl lactate.

For the substance virginiamycin, the “Concentration that can be dissolved” value (ethanol with water, at least 75% by weight ethanol (balance water)) was about 70000 µg/mL. The “Virginiamycin solubility in grams per liter of solvent” value (solvent: 2-ethyl hexyl lactate) worked out at 24 grams per liter; the “Virginiamycin solubility in grams per liter of solvent” value (solvent: 2-ethyl hexyl lactate, listed as Virginiamycin) is “˜24 grams per liter”; the “Virginiamycin solubility in grams per liter of solvent” value (solvent: 50% NMP/50% DMSO) was “˜335 grams per liter”; the “Virginiamycin solubility in grams per liter of solvent” value under setting [1] is reported as under 200 grams per liter; the “Virginiamycin solubility in grams per liter of solvent” value (solvent: 70% ethanol/30% water) was “˜70 grams per liter”; the “Virginiamycin solubility in grams per liter of solvent” value (solvent: Dimethylsulfoxide (DMSO)) was “˜270 grams per liter”. Moreover, the “Virginiamycin solubility in grams per liter of solvent” value by setting is: (solvent: Ethyl lactate) “about 92 grams per liter”; (solvent: Ethyl lactate, listed as Virginiamycin) “˜92 grams per liter”; (solvent: Methyl soyate ester) under 1 gram per liter; (solvent: N,N-dimethylcapramide) “˜70 grams per liter”; (solvent: N-methylpyrrolidone (NMP)) “˜260 grams per liter”; (solvent: tetrahydrofurfuryl alcohol) under 160 grams per liter. Moreover, the “Gel formation of virginiamycin solution” value under setting [1] is “forms a hard gel at 280”. Also, the “Amount of virginiamycin dissolved per liter” value (solvent: NMP, over a short period of time) is reported as “about 290 grams per liter”.

(Values after patent US20080003215A1, “Use of pre-dissolved pristinamycin-type and polyether ionophore type antimicrobial agents in the production of ethanol” (priority 2006, published 2008).)
